Source: patent US20020025332A1, “Cosmetic compositions containing substituted sulfonamide derivatives” (Unilever Home & Personal Care USA, Division of Conopco, Inc., priority 2000, published 2002)
Where “and” joins values, the source holds several entries; their conditions need not be identical. Equal entries are not always repeated. Where two headings read alike, the source gives them in different places.

System: human sebocytes
Experiment: Sebum suppression: 14C-acetate label remaining in cultured human sebocytes after treatment
Format: cell-based
Conditions: for activity at 1 µM / activity at 10 µM / activity at 100 µM / activity at 0.1 µM: read-out: % of Control; for sebum suppressive activity in the presence of retinol: in the presence of retinol / a retinoid versus compound alone
Procedure: Compounds A through K were tested for their potential to suppress sebum expression, alone or in the presence of a retinoid.
Secondary cultures of human sebocytes obtained from an adult […] were grown in 48-well tissue culture plates (Costar Corp.; Cambridge, Mass.) or 96-well tissue culture plates (Packard Co.; Meriden, Conn.) until confluent. Sebocyte growth medium consisted of Clonetics Keratinocyte Basal Medium (KBM) supplemented with 14 μg/ml bovine pituitary extract, 0.4 μg/ml hydrocortisone, 5 μg/ml insulin, […], 1.2×10^-10 M cholera toxin, 100 units/ml penicillin, and 100 μg/ml streptomycin. All cultures were incubated at 37° C. in the presence of 7.5% CO2. Medium was changed three times per week.
On the day of experimentation, the growth medium was removed and the sebocytes washed three times with sterile Dulbecco's Modified Eagle Medium (DMEM; phenol red free). Fresh DMEM was added to each sample (duplicates, triplicates, or quadruplicates depending on the experiment) with 5 microliter of test agent solubilized in ethanol either alone or in the presence of one or 10 micromolar of retinol. Controls consisted of addition of ethanol alone, retinol alone, or phenol red, which has estrogen-like activity and is included as a positive control.
Each plate was returned to the incubator for 20 hours followed by the addition of 14C-acetate buffer (5 mM final concentration, 56 mCi/mmol specific activity). Sebocytes were returned to the incubator for four hours afterwhich each culture was rinsed three times with phosphate buffered saline to remove unbound label. Radioactive label remaining in the sebocytes was harvested and counted using a Beckman scintillation counter.

[1] = 1 μM test agent + 10 μM Retinol
[2] = 10 μM test agent + 1 μM Retinol
[3] = Homo sapiens, 1 μM test agent + 1 μM Retinol
[4] = Homo sapiens, 1 μM test agent + 10 μM Retinol
[5] = Homo sapiens, 1 μM test agent alone
[6] = Homo sapiens, 10 μM test agent + 1 μM Retinol
[7] = Homo sapiens, 10 μM test agent alone
[8] = 10 μM test agent + 10 μM Retinol
[9] = Homo sapiens, 10 μM test agent + 10 μM Retinol
[10] = Homo sapiens, 100 μM test agent + 1 μM Retinol
[11] = Homo sapiens, 100 μM test agent + 10 μM Retinol
[12] = Homo sapiens, 100 μM test agent alone

| Structure (SMILES) | % of Control (1 μM test agent + 1 μM Retinol) | % of Control [1] | % of Control (1 μM test agent alone, 1 µM) | % of Control [2] | % of Control (10 μM test agent alone, 10 µM) | activity at 1 µM [3] [%] | activity at 1 µM [4] [%] | activity at 1 µM [5] [%] | activity at 10 µM [6] [%] | activity at 10 µM [7] [%] | sebum suppressive activity in the presence of retinol | % of Control [8] | activity at 10 µM [9] [%] | activity at 100 µM [11] [%] | activity at 100 µM [12] [%] | further results |
| --- | --- | --- | --- | --- | --- | --- | --- | --- | --- | --- | --- | --- | --- | --- | --- | --- |
| COc1ccc(S(=O)(=O)Nc2cccc(C(C)O)c2)cc1 (stereo not drawn) [Compound A] | 102.5% | 94.6% | 100.7% | 65.8% | 91.9% | 112 | 101 | 111 | 46 | 109 | improved sebum suppressive activity | – | – | – | – | – |
| CC(O)c1cccc(NS(=O)(=O)c2c(F)c(F)c(F)c(F)c2F)c1 (stereo not drawn) [Compound B] | 94.7% | 96.5% | 98.4% | 90.1% | 89.3% | 90.9 | 96.4 | 79.8 | 80.6 | 95.4 | – | 84.8% | 84.4 | 72.2 | 74.2 | activity at 100 µM [10]: 75.3% |
| CC(O)c1cccc(NS(=O)(=O)c2ccc(Cl)c([N+](=O)[O-])c2)c1 (stereo not drawn) [Compound C] | – | – | – | – | – | 87.7 | 77.5 | 101 | 95.5 | 79 | improved sebum suppressive activity | – | 84.8 | 5.3 | 37.8 | activity at 100 µM [10]: 20.8% |
| CC(O)c1cccc(NS(=O)(=O)c2cccc3c(N(C)C)cccc23)c1 (stereo not drawn) [Compound D] | – | 102.8% | 126.4% and 102.4% | – | 71.6% and 43.3% | 102 | 89.1 | – | 60.8 | – | improved sebum suppressive activity | – | – | 1.2 | 6.7 | – |
| CC(O)c1cccc(NS(=O)(=O)c2cccs2)c1 (stereo not drawn) [Compound E] | 98.3% | 110.2% | 103.3% | 5.7% and 1.6% | – | 103 | 102 | 94.6 | – | – | – | – | – | – | – | – |
| O=[N+]([O-])c1cc(S(=O)(=O)Nc2ccc3c(c2)OCCO3)ccc1Cl [Compound F] | 100.4% and 75.9% | 74.2% | 80.7% | 1.8% and 0.6% | – | – | 89.1 | 79.6 | – | – | – | – | 1.2 | – | – | – |
| O=S(=O)(Nc1ccc2c(c1)OCCO2)c1ccc2ccccc2c1 [Compound G] | – | – | 82.0% | 39.9% | 45.7% and 25.0% | – | – | 67.5 | 24.8 | – | improved sebum suppressive activity | 13.1% | 17.9 | – | – | activity at 0.1 µM (Homo sapiens, 0.1 μM test agent + 1 μM Retinol): 103%; activity at 0.1 µM (Homo sapiens, 0.1 μM test agent + 10 μM Retinol): 94.1%; activity at 0.1 µM (Homo sapiens, 0.1 μM test agent alone, 14C-acetate label in sebocytes): 101% |
| CN(C)c1cccc(NS(=O)(=O)c2ccc(Cl)c([N+](=O)[O-])c2)c1 [Compound H] | 88.0% and 90.2% and 65.1% | 86.8% and 78.8% and 53.6% and 91.1% | 96.1% and 71.7% and 66.6% and 83.4% | – | – | – | – | – | – | – | – | 80.3% and 76.1% and 79.2% and 118.0% | – | 3.9 | 44.2 | – |
| CN(C)c1cccc(NS(=O)(=O)c2ccc3ccccc3c2)c1 [Compound J] | – | 67.9% and 93.8% | 55.6% | – | 81.7% | 74.1 | – | 74.6 | 64.7 | 67.5 | – | 69.8% | 63.9 | 2 | 1.2 | – |
| O=S1(=O)OC(c2ccc(O)cc2)(c2ccc(O)cc2)c2ccccc21 [Phenol Red, phenol red, reference compound] | – | – | – | – | – | – | – | – | – | – | – | – | – | – | – | % of Control (28 μM (positive control) alone, 28 µM): 74.7% and 68.4% and 84.4%; % of Control (280 μM (positive control) alone): 54.2% and 52.5%; activity at 28 µM (Homo sapiens, 28 μM (positive control) alone): 67.6% |
| CC1=C(/C=C/C(C)=C/C=C/C(C)=C/CO)C(C)(C)CCC1 [Retinol, retinol, reference compound] | – | – | 85.5% and 96.5% and 99.9% and 103.7% and 99.3% and 93.9% | – | – | – | – | 98.4 | – | – | – | – | – | – | – | sebum suppressive activity (alone, 1 or 10 μM): inactive |
